Experimental data reported in PubChem BioAssay (NCI).
Where “and” joins values, the source holds several entries; their conditions need not be identical. Equal values may be shown once.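 Method: 48-hour compound exposure of cells in 96-well plates, five concentrations, linear interpolation of endpoints. The concentration for 50% growth inhibition is given as GI50. TGI: total growth inhibition.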

Columns and labels:
Test in all cases: growth of human tumour cells (NCI), 48 h
NCI-H460 lung = test system: NCI-H460 lung
OVCAR-8 ovarian = test system: OVCAR-8 ovarian
UACC-62 melanoma = test system: UACC-62 melanoma
MCF7 breast = test system: MCF7 breast
SN12C renal = test system: SN12C renal
SNB-75 CNS = test system: SNB-75 CNS
SK-MEL-5 melanoma = test system: SK-MEL-5 melanoma
ACHN renal = test system: ACHN renal
NCI-H522 lung = test system: NCI-H522 lung
SK-OV-3 ovarian = test system: SK-OV-3 ovarian

Row | Structure (SMILES) | GI50 (NCI-H460 lung) [µM] | TGI (NCI-H460 lung) | GI50 (OVCAR-8 ovarian) [µM] | TGI (OVCAR-8 ovarian) [µM] | GI50 (UACC-62 melanoma) [nM] | TGI (UACC-62 melanoma) | GI50 (MCF7 breast) [nM] | TGI (MCF7 breast) [µM] | GI50 (SN12C renal) [µM] | TGI (SN12C renal) [µM] | GI50 (SNB-75 CNS) [µM] | TGI (SNB-75 CNS) | GI50 (SK-MEL-5 melanoma) [nM] | TGI (SK-MEL-5 melanoma) | GI50 (ACHN renal) [µM] | TGI (ACHN renal) [µM] | GI50 (NCI-H522 lung) [µM] | TGI (NCI-H522 lung) [µM] | GI50 (SK-OV-3 ovarian) [µM] | TGI (SK-OV-3 ovarian)
1 | COc1cc(OC)c(C(=O)/C=C/c2cccc(C#N)c2)c(OC)c1 | 1.1 | 2.86 µM | 1.47 | 6.51 | 1220 | 4.92 µM | 1330 | 6.72 | 1.5 | 7.1 | 1.31 | 5.62 µM | 1550 | 6.16 µM | 1.13 | 4.47 | 0.992 | 2.94 | 1.82 | > 50 µM
2 | OCCn1cnc2c(SCc3ccccc3)ncnc21 | – | > 100 µM | – | > 100 | – | > 100 µM | – | > 100 | – | > 100 | – | > 100 µM | – | > 100 µM | – | > 100 | – | > 100 | – | > 100 µM
3 | CCc1ccc2c(c1)C(=O)c1c-2n(CCCN=[N+]=[N-])c(=O)c2cc(OC)c(OC)cc12 | > 100 | > 100 µM | > 100 | > 100 | 91900 | > 100 µM | 91700 | > 100 | > 100 | > 100 | > 100 | > 100 µM | > 100000 | > 100 µM | 42.2 | > 100 | 49 | > 100 | > 100 | > 100 µM
4 | O=c1c(O)c(-c2ccc(O)c(O)c2)oc2cc(O)cc(O)c12 | 6.73 | 66.9 µM and > 100 µM | 14.1 | > 100 | 4740 | 25.5 µM and > 100 µM | 7950 | > 100 | 10.5 | > 100 | 4.42 | 39.2 µM and > 100 µM | 9240 | 44 µM and > 100 µM | 15.6 | > 100 | 5.54 | > 100 | 18.3 | 68.5 µM and > 100 µM
5 | Cc1ccc(-c2csc(NC(=O)N3CCN(c4cc5c(cc4F)c(=O)c(C(=O)O)cn5C4CC4)CC3)n2)cc1 | 0.355 | > 100 µM | 0.421 | 7.74 | 630 | 6.29 µM | 490 | > 100 | 0.366 | > 100 | 0.289 | 9.55 µM | 889 | 2.51 µM | 0.307 | 4.22 | 0.291 | 2.15 | 1.35 | 6.12 µM
6 | Cc1cn2c(/C=C3/C(=O)Nc4ccc(O)cc43)c(C)nc2s1 | 2.56 | 14.5 µM | 10.4 | > 51.7 | 1160 | 11.4 µM | 1600 | > 33.6 | 3.79 | 41.4 | 4.61 | > 100 µM | 1400 | 7.74 µM | 5.72 | 62.8 | 0.773 | > 29.3 | 3.8 | > 28.8 µM
7 | COC(=O)c1cc2ccccc2c2c3c(ccc12)OCO3 | 290 | > 1000 µM | 41.1 | > 1000 | 40100 | > 1000 µM | 306000 | > 1000 | 205 | > 1000 | 12.2 | 48.1 µM | 45200 | > 1000 µM | 75.3 | > 1000 | – | – | 45.8 | 357 µM
8 | C#CCNCCN1C(=O)c2ccc3c4c(ccc(c24)C1=O)C(=O)N(CCNCC#C)C3=O | 1.86 | 9.68 µM | 2.25 | 20.8 | 1710 | 6.68 µM | 2670 | 13.4 | 2.62 | 9.32 | 5.95 | 14.5 µM | 1650 | 6.56 µM | 2.63 | 9.8 | 3.98 | 10.9 | 6.3 | 22.6 µM
9 | Cc1ccc(C(=O)NC2CCC2)cc1-c1ccc(C(=O)NCC2CC2)cc1 | > 25 | > 25 µM | > 25 | > 25 | > 25000 | > 25 µM | > 25000 | > 25 | > 25 | > 25 | > 25 | > 25 µM | > 21500 | > 25 µM | > 25 | > 25 | > 25 | > 25 | > 25 | > 25 µM
10 | Nc1ccccc1C#C/C=C\C#Cc1cccc(O)c1 | 3.19 | > 34.2 µM | 0.663 | 13.9 | 1870 | 6.6 µM | 918 | 11.2 | 2.66 | 19.6 | 1.36 | 13.5 µM | 2470 | 14.5 µM | 2.64 | 18.8 | 1.09 | 11.5 | 3.03 | 19.8 µM
11 | COc1cnc2c(c1)C(=O)c1c-2n(CCCNC2=NCCS2)c(=O)c2cc(Cl)ccc12 | 0.0299 | 1.16 µM | – | – | 95.3 | 1.94 µM | 36.6 | 1.32 | – | – | 1.23 | 2.51 µM | 812 | 2.12 µM | 0.0487 | 1.49 | – | – | 0.316 | 1.64 µM
12 | CC1=C(C(=O)N(C)c2ccc(Cl)c(C(=O)OC(C)C)c2)SCCO1 | – | > 100 µM | – | > 100 | – | > 100 µM | – | > 100 | – | > 100 | – | 90.8 µM | – | > 100 µM | – | > 100 | – | > 100 | – | > 100 µM
13 | CC(C)CCNCC(O)Cn1c2ccccc2c2ccccc21 (centres undefined) | 3.64 | 13.7 µM | 13.7 | 33.7 | 10400 | 22.4 µM | 2720 | 10.3 | 11.2 | 25.1 | 6.54 | 21 µM | 2270 | 6.25 µM | 10.5 | 23.4 | 13.6 | 27.7 | 17.2 | 31.2 µM
14 | CN(C)c1ccc(C(=NO)c2ccc(N(C)C)cc2)cc1 | 3.23 | > 100 µM | 3.9 | > 100 | 2110 | > 100 µM | 1710 | > 100 | 4.94 | > 100 | 3.33 | 53.2 µM | 1570 | 4.74 µM | 8.43 | > 100 | 1.08 | > 100 | 3.57 | > 100 µM
15 | O=C1C(SCCO)=C(SCCO)C(=O)N1c1ccc(-c2ccccc2)cc1 | 9.75 | 34.9 µM | 2 | 5.82 | 6340 | 19 µM | 2170 | 7.74 | 5.47 | 19.6 | 4.1 | 11.1 µM | 9460 | 24.6 µM | 1.68 | 3.11 | 7.51 | 22.6 | 32.7 | > 100 µM
16 | Cc1[nH]c2ccc(F)cc2c1-c1nc2c3cccnc3c3ncccc3c2[nH]1 | 0.41 | > 100 µM | 0.345 | > 100 | 231 | 0.678 µM | 361 | > 100 | 0.403 | > 100 | 0.422 | > 100 µM | 190 | 0.516 µM | 0.327 | > 100 | – | – | 0.35 | > 100 µM
17 | COc1ccc(C(=O)/C=C/c2cccc(Nc3ccnc4cc(Cl)ccc34)c2)cc1 | 2.23 | > 100 µM | – | – | – | – | 1820 | > 100 | – | – | 1.51 | 4.12 µM | – | – | – | – | 1.88 | > 100 | 2.22 | 7.98 µM
18 | Cc1nn(C)c(COc2ccc(N3CCN(S(=O)(=O)N(C)C)CC3)cc2)c1-c1cccc2c(CCCOc3cccc4ccccc34)c(C(=O)O)n(CCN3CCOCC3)c12 | 3.17 | 11.1 µM | 3.51 | 14.7 | – | – | 2840 | 11 | 3.25 | 12.4 | 2.11 | 10.5 µM | 2440 | 5.96 µM | 4.03 | 15.7 | 3.11 | 9.35 | 2.64 | 10.3 µM
19 | CN(C)C(=O)c1cnc2oc3ccc(O)cc3c2c1-c1ccccc1 | 16.2 | > 25 µM | > 25 | > 25 | – | – | > 25000 | > 25 | – | – | 11.7 | > 25 µM | 6750 | > 25 µM | > 25 | > 25 | > 25 | > 25 | 24.6 | > 25 µM
20 | Cc1nn(-c2ccc([N+](=O)[O-])cc2)c2ncnc(N/N=C/c3ccccc3O)c12 | 0.34 | 1.46 µM | – | – | 986 | 3.76 µM | 360 | > 100 | 0.399 | 3.17 | 0.554 | 4.23 µM | 448 | 2.25 µM | 0.3 | 1.29 | 0.365 | 7.56 | 0.497 | > 22.1 µM
21 | [O-]c1ccccc1/C=N/C(/N=C/c1ccccc1[O-])c1ccccc1O.[O-]c1ccccc1/C=N/C(/N=C/c1ccccc1[O-])c1ccccc1O.[Zr+4] | 34 | > 100 µM | 26.7 | > 100 | – | – | 35900 | > 100 | 57.3 | > 100 | 3.8 | 61.1 µM | 22400 | > 100 µM | 36.1 | > 100 | 10.9 | 65.3 | 23.1 | > 100 µM
22 | Cc1nn(-c2ccc(Cl)cc2)c2nc3c(nc12)C(=O)C(=O)c1ccccc1-3 | – | – | 21.7 | > 100 | 8450 | 34.4 µM | 27900 | > 100 | 2.7 | 12.6 | 1.66 | 4.3 µM | 4940 | 24.1 µM | 19.5 | > 100 | 2.96 | 6.57 | > 100 | > 100 µM
23 | CCSc1nc(SCC)c2c(-c3ccc(OC)c(OC)c3)c(C#N)c(SCC)nc2n1 | 21.8 | > 100 µM | 43.8 | > 100 | 18500 | 43.4 µM | 14800 | > 100 | 21.7 | 56.7 | – | – | 26600 | 78.8 µM | 17.8 | 38 | 41.1 | > 100 | > 100 | > 100 µM
24 | O=S(=O)(c1cccc2c(I)cccc12)N1CCCNCC1 | 33.2 | > 100 µM | 24.4 | 51.9 | 19900 | 37.3 µM | 36100 | > 100 | 21.2 | 38.4 | – | – | 8710 | 25.2 µM | 18.1 | 33.6 | 14.8 | 30.3 | 20.2 | 37.6 µM
25 | COc1cc([N+](=O)[O-])c(OC)cc1-c1nc2sccn2c1/C=N/N=C(N)N | 28.3 | > 100 µM | 17.3 | 59.8 | 27700 | 70.5 µM | 22000 | > 100 | 9.36 | 42.1 | – | – | 33700 | > 100 µM | 12.8 | 28.8 | 21 | > 100 | 36.5 | 94.8 µM
26 | CN1CCc2[nH]nc(-c3n[nH]c4c3CN(C)CC4)c2C1 | – | > 100 µM | – | > 100 | – | > 100 µM | – | > 100 | – | > 100 | – | – | – | > 100 µM | – | > 100 | – | > 100 | – | > 100 µM
27 | CCN1C(=O)N(CC)C2C1NN=c1s/c(=C\c3ccccn3)c(=O)n12 (centres undefined) | 2.07 | > 100 µM | 3.98 | > 100 | 833 | > 100 µM | 468 | > 100 | 5.29 | > 100 | – | – | 2460 | > 100 µM | 6.45 | > 100 | 0.69 | 10.2 | 3.92 | > 100 µM
